# Earlier results as cited in paper PMC7904743, “WIDOCK: a reactive docking protocol for virtual screening of covalent inhibitors” (Journal of Computer-Aided Molecular Design, 2021).
# Like-named read-outs stand apart in the source and are kept apart here.
# Assays:
# OTUB2 = conditions: experimental actives if % labeling higher than 50%, cited from earlier work
# NUDT7 = conditions: protein labeling at 200 μM; experimental actives if % labeling higher than 50%; cited from earlier work
# [1] = thiol reactivity, cited from earlier work
# [2] = natural log of average kinetic rate constant
# [3] = natural log of average rate constant
# [4] = natural log of average rate constant k
# [5] = natural logarithm of average rate constant
SMILES,OTUB2 % labeling (OTUB2; OTUB2 protein labeling),NUDT7 % labeling (NUDT7),"ln(avg k) [1, 2]","ln(avg k) [1, 3]",OTUB2 % labeling (OTUB2),"ln(avg k) [1, 4]","ln(avg k) [1, 5]"
"CC(NC(=O)CCl)c1ccco1 (centres unmarked) [PCM-0102798, CC(NC(=O)CCl)c1ccco1]",19%,14%,-16.737,-16.737,–,–,–
"O=C(CCl)N1CCCC1c1ccc2c(c1)OCCO2 (centres unmarked) [PCM-0102298, O=C(CCl)N1CCCC1c1ccc2c(c1)OCCO2]",–,100%,–,–,0%,-15.407,-15.407
"Cc1ccc2nc(NC(=O)CCl)sc2c1 [PCM-0103031, Cc1ccc2nc(NC(=O)CCl)sc2c1]",18%,88%,-15.473,-15.473,–,–,–
"CC(NC(=O)CCl)c1ccc2c(c1)OCCO2 (centres unmarked) [PCM-0102342, CC(NC(=O)CCl)c1ccc2c(c1)OCCO2]",–,8%,–,–,57%,-16.412,-16.412
"CN(C(=O)CCl)C(C)(C)C#N [PCM-0102782, CN(C(=O)CCl)C(C)(C)C#N]",0%,0%,-16.514,-16.514,–,–,–
"CN(C(=O)CCl)C1=CCCC1 [PCM-0102869, CN(C(=O)CCl)C1=CCCC1]",0%,0%,-17.213,-17.213,–,–,–
"O=C(CCl)N1CCc2sccc2C1 [PCM-0102123, O=C(CCl)N1CCc2sccc2C1]",–,14%,–,–,39%,-15.106,-15.106
"O=C(CCl)Nc1ccc(-c2nnc3n2CCCCC3)cc1 [PCM-0102101, O=C(CCl)Nc1ccc(-c2nnc3n2CCCCC3)cc1]",–,0%,–,–,28%,-15.815,-15.815
"O=C(CCl)N1CCN(S(=O)(=O)c2ccc(F)cc2)CC1 [PCM-0102237, O=C(CCl)N1CCN(S(=O)(=O)c2ccc(F)cc2)CC1]",–,6%,–,–,0%,-16.014,-16.014
"O=C(CCl)Nc1ccncc1 [PCM-0102930, O=C(CCl)Nc1ccncc1]",0%,0%,-16.813,-16.813,–,–,–
"O=C(CCl)Nc1cc2c(cc1Br)OCCO2 [PCM-0102299, O=C(CCl)Nc1cc2c(cc1Br)OCCO2]",–,27%,–,–,67%,-16.302,-16.302
"CC(NC(=O)CCl)c1cc2ccccc2o1 (centres unmarked) [PCM-0102117, CC(NC(=O)CCl)c1cc2ccccc2o1]",–,12%,–,–,41%,-16.443,-16.443
"COC(=O)C1CCN(C(=O)CCl)CC1 [PCM-0102978, COC(=O)C1CCN(C(=O)CCl)CC1]",0%,0%,-16.559,-16.559,–,–,–
"O=C(CCl)N1CCN(Cc2ccc3c(c2)OCCO3)CC1 [PCM-0102386, O=C(CCl)N1CCN(Cc2ccc3c(c2)OCCO3)CC1]",–,0%,–,–,0%,-15.669,-15.669
"O=C(CCl)N1CCN(S(=O)(=O)c2ccccc2F)CC1 [PCM-0102281, O=C(CCl)N1CCN(S(=O)(=O)c2ccccc2F)CC1]",–,14%,–,–,0%,-15.235,-15.235
"O=C(CCl)Nc1nc2ccc(F)cc2s1 [PCM-0102294, O=C(CCl)Nc1nc2ccc(F)cc2s1]",–,89%,–,–,0%,-15.413,-15.413
"O=C(CCl)N1CCN(S(=O)(=O)c2ccc3c(c2)CCC3)CC1 [PCM-0102193, O=C(CCl)N1CCN(S(=O)(=O)c2ccc3c(c2)CCC3)CC1]",–,0%,–,–,0%,-15.169,-15.169
